# Results published in ChEMBL document CHEMBL3301562, “MMV Box screening against Plasmodium falciparum protein kinases and aminoacyl tRNA synthetases”.
# Assays:
# Format in all cases: functional
# [1] = target: T1, Cdk-related protein kinase 6 (Plasmodium falciparum, UniProt O77239); experiment: Final concentrations were 1.5 uM ATP, 5 mM MnCl2, and 15 ug/ml PK6 in a buffer of 100 mM Tris-HCl (pH 7.5). 50 ug/mL MBP was provided as the substrate; 10 uM staurosporine was used as a control inhibitor. Incubation time was 3 hours and 40 minutes.The catalytic activity of each kinase was considered proportional to ATP consumed, as determined from measurements of residual [ATP] with the luciferase-based reagent Kinase-Glo (Promega) following incubation. Luminescence (proportional to residual [ATP]) was measured on the plate readers FLx800 (BioTek Instruments, Winooski, VT, USA) and MicroBeta2.
# T1 sequence (O77239 whole entry): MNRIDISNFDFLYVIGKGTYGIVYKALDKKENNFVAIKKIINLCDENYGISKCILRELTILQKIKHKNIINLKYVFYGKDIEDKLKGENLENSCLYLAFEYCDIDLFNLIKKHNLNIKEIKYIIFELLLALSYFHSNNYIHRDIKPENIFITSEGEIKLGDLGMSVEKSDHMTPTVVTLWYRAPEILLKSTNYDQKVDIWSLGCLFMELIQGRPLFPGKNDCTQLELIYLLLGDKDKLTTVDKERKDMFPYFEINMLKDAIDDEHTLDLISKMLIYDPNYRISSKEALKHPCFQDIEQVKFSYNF
# [2] = target: T2, Putative uncharacterized protein pk7 (Plasmodium falciparum, UniProt O96214); experiment: Final concentrations were 1 uM ATP, 2 mM DTT, 20 mM MgCl2, 2 mM MnCl2, 0.01% BSA, and 6 ug/ml PK7, in a buffer of 20 mM Tris-HCl (pH 7.5). The enzyme itself was the only substrate present (since autophosphorylation occurs); 100 uM 1NA-PP1 was used as a control inhibitor. Incubation time was 3 hours.
# T2 sequence (O96214 whole entry): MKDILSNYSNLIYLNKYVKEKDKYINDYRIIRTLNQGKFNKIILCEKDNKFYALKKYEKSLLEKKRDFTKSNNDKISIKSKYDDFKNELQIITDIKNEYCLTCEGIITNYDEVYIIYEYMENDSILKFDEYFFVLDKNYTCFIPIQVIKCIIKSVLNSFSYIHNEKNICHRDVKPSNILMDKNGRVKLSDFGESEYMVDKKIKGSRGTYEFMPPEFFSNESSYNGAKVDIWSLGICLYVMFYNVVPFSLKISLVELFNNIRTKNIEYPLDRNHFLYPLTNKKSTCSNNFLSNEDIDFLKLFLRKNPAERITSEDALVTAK
# [3] = target: T3, Mitogen-activated protein kinase (Plasmodium falciparum, UniProt Q25917); experiment: Final concentrations were 1 uM ATP, 0.5 mM DTT, 1 mM MgCl2, 0.5 mg/mL BSA, and 10 ug/ml MAP2 in a buffer of 50 mM HEPES (pH 7.0). 0.5 mg/mL histone III-S served as the substrate (13); 100 uM AMP-PNP, an ATP analog, was used as a control inhibitor. Incubation time was 4 hours.
# T3 sequence (Q25917 whole entry): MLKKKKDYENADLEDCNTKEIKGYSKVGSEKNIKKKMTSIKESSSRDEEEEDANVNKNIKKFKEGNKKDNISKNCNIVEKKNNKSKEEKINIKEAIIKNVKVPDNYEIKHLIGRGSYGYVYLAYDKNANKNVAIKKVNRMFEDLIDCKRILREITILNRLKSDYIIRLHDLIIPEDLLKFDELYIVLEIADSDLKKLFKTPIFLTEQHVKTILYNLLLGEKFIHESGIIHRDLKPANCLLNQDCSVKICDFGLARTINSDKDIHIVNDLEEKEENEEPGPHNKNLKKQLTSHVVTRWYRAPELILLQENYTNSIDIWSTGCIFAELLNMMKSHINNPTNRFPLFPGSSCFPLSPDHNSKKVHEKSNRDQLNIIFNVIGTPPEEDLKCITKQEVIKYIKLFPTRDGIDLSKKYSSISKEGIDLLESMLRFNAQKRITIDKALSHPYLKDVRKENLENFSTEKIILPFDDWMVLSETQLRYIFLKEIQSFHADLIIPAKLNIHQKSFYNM
# [4] = target: Calcium-dependent protein kinase 1 (Plasmodium falciparum, UniProt P62344); experiment: MMV: CDPK1 Protein kinase inhibition assay using recombinant PfCDPK1, syntide 2 peptide substrate, ATP and KinaseGlo to measure % inhibition at 1 uM MMV box compound.
# Chain of Calcium-dependent protein kinase 1 (P62344 whole entry): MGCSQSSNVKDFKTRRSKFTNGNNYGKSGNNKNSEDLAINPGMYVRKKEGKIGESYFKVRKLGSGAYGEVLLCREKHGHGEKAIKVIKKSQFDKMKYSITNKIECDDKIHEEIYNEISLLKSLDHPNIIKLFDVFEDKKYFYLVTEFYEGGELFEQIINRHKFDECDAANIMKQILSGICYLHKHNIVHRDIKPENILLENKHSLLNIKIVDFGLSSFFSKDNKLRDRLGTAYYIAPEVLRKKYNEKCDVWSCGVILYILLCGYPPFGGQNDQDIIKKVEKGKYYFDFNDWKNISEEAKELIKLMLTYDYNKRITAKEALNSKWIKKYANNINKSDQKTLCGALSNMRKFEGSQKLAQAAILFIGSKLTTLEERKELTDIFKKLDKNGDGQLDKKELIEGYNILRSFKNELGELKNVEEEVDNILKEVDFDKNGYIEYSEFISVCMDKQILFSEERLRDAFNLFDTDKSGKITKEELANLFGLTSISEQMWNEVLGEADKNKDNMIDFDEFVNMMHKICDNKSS
# [5] = target: T4, Calcium-dependent protein kinase 4 (Plasmodium falciparum (isolate 3D7), UniProt Q8IBS5); experiment: MMV: CDPK4 Protein kinase inhibition assay using recombinant PfCDPK4, syntide2 peptide substrate, ATP and KinaseGlo to measure % inhibition at 1 uM MMV box compound.
# T4 sequence (Q8IBS5 whole entry): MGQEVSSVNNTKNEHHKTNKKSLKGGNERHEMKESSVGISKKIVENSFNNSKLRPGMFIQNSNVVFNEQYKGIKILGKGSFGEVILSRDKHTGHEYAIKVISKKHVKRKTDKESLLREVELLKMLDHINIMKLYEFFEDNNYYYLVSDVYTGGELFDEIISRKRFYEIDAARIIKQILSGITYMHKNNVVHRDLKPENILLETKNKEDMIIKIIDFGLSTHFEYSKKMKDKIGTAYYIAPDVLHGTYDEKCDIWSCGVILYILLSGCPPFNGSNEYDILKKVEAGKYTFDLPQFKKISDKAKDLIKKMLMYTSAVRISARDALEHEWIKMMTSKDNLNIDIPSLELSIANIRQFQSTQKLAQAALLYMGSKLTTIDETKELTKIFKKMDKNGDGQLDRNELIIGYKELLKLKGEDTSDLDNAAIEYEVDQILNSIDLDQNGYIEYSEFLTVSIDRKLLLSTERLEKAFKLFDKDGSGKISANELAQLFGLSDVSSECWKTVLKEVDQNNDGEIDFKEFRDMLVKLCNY
# [6] = target: T5, Proline--tRNA ligase (Plasmodium falciparum (isolate 3D7), UniProt Q8I5R7); experiment: MMV: ProRS recombinant Plasmodium falciparum Prolyl-tRNA-synthetase, assay with yeast tRNA, ATP, and proline and 3 uM MMV malaria box compound, assay read out with kinase glo as % inhibition.
# T5 sequence (Q8I5R7 whole entry): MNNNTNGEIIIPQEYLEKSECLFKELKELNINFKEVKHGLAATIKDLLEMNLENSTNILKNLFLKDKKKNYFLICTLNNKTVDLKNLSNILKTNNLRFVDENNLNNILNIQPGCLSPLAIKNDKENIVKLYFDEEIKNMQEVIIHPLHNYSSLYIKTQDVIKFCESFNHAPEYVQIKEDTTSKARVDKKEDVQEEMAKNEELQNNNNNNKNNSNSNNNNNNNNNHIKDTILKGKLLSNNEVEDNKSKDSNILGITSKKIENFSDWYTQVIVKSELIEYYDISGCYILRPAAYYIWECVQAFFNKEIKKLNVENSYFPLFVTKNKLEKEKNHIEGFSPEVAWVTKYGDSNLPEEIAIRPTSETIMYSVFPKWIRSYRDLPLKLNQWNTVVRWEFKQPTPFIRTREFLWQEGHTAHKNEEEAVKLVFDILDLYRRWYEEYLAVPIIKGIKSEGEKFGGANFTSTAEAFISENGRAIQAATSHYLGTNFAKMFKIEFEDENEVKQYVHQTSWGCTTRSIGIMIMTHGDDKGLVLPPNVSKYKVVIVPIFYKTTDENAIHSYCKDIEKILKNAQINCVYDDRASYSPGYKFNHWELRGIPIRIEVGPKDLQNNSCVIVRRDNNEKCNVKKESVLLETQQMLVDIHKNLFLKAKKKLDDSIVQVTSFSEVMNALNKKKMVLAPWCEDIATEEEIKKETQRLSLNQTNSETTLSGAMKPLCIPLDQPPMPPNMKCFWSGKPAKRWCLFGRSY
# [7] = target: Lysine--tRNA ligase (Plasmodium falciparum (isolate 3D7), UniProt Q8IDJ8); experiment: MMV: KRS recombinant Plasmodium falciparum Lysyl-tRNA-synthetase, assay with yeast tRNA, ATP, and lysine and 3 uM MMV malaria box compound, assay read out with kinase glo as % inhibition.
# Chain of Lysine--tRNA ligase (Q8IDJ8 whole entry): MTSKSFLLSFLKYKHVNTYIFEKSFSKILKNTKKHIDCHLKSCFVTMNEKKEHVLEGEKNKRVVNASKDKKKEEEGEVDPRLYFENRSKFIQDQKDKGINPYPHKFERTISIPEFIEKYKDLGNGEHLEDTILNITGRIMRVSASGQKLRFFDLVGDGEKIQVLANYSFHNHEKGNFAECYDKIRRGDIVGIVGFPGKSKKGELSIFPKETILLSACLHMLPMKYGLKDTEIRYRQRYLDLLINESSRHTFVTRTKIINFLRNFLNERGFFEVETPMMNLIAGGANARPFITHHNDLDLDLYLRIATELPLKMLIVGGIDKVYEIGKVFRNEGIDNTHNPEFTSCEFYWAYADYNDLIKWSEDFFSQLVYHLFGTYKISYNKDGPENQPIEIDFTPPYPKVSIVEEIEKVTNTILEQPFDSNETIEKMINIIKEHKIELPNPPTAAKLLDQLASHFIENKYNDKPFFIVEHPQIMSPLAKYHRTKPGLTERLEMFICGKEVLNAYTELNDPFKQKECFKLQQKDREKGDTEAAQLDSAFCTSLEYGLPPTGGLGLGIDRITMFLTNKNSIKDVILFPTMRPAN
Compound,IC50 [1],IC50 [2],IC50 [3],IC50 [4],IC50 [5],IC50 [6],IC50 [7]
N=c1n(CCN2CCCCC2)c2ccccc2n1CC(=O)c1ccc(Cl)c(Cl)c1,> 1000 nM,> 1000 nM,> 1000 nM,> 1000 nM,> 1000 nM,> 2500 nM,> 2500 nM
COc1ccc(-c2nc(N3CCN(C(=O)C4CCCCC4)CC3)c3c4c(sc3n2)CCCC4)cc1,> 1000 nM,> 1000 nM,> 1000 nM,> 1000 nM,> 1000 nM,> 2500 nM,> 2500 nM
Cc1sc(NC(=O)c2ccco2)c(C(c2cccnc2)N2CCC(Cc3ccccc3)CC2)c1C (configuration not stated),> 1000 nM,> 1000 nM,> 1000 nM,> 1000 nM,> 1000 nM,> 2500 nM,> 2500 nM
COc1cc(C(=O)Nc2nc3c(cc4c5c(cccc53)CC4)s2)cc(OC)c1OC,> 1000 nM,> 1000 nM,> 1000 nM,> 1000 nM,> 1000 nM,> 2500 nM,> 2500 nM
OC1=C2C(=Nc3ccccc3SC2c2ccccc2)c2ccccc21 (configuration not stated),> 1000 nM,> 1000 nM,> 1000 nM,> 1000 nM,> 1000 nM,> 2500 nM,> 2500 nM
COc1cc(C(=O)Nc2ccc(-c3nc4ccccc4[nH]3)cc2)cc(OC)c1OC,> 1000 nM,> 1000 nM,> 1000 nM,> 1000 nM,> 1000 nM,> 2500 nM,> 2500 nM
COC(=O)c1ccc(C2C3=C(O)CC(c4ccc(F)cc4)CC3=Nc3ccccc3N2C(=O)c2ccccc2)cc1 (configuration not stated),> 1000 nM,> 1000 nM,> 1000 nM,> 1000 nM,> 1000 nM,> 2500 nM,> 2500 nM
CCOc1ccc(CN2CCN(CC(O)COc3ccc(OCC(O)CN4CCN(Cc5ccc(OCC)cc5)CC4)cc3)CC2)cc1 (configuration not stated),> 1000 nM,> 1000 nM,> 1000 nM,> 1000 nM,> 1000 nM,> 2500 nM,> 2500 nM
CCCCNc1nc(NC(C)(C)C)nc(NC(C)(C)C)n1,> 1000 nM,> 1000 nM,> 1000 nM,> 1000 nM,> 1000 nM,> 2500 nM,> 2500 nM
CC(=O)c1sc(NC(=O)Nc2ccc(C)cc2C)nc1C,> 1000 nM,> 1000 nM,> 1000 nM,> 1000 nM,> 1000 nM,> 2500 nM,> 2500 nM
Oc1ccc2ccccc2c1CNc1nc2ccccc2[nH]1,> 1000 nM,> 1000 nM,> 1000 nM,> 1000 nM,> 1000 nM,> 2500 nM,> 2500 nM
O=C(Nc1ccc(-c2nc3ccccc3[nH]2)cc1)c1ccc(Cl)c(Cl)c1,> 1000 nM,> 1000 nM,> 1000 nM,> 1000 nM,> 1000 nM,> 2500 nM,> 2500 nM
Cc1cc(N(C)C)nc(Nc2ccc(NC(=O)Nc3ccccc3)cc2)n1,> 1000 nM,> 1000 nM,> 1000 nM,> 1000 nM,> 1000 nM,> 2500 nM,> 2500 nM
COc1cc(C(=O)ON=C(N)Cc2cccc3ccccc23)cc(OC)c1OC,> 1000 nM,> 1000 nM,> 1000 nM,> 1000 nM,> 1000 nM,> 2500 nM,> 2500 nM
Oc1c(C(Nc2ccccn2)c2cccc(Oc3ccccc3)c2)ccc2cccnc12 (configuration not stated),> 1000 nM,> 1000 nM,> 1000 nM,> 1000 nM,> 1000 nM,> 2500 nM,> 2500 nM
COc1cc(-c2nc(-c3ccccc3)c(-c3ccccc3)[nH]2)cc(OC)c1O,> 1000 nM,> 1000 nM,> 1000 nM,> 1000 nM,> 1000 nM,> 2500 nM,> 2500 nM
Cc1ccc(Nc2nc(N)c3ccccc3n2)cc1Cl,> 1000 nM,> 1000 nM,> 1000 nM,> 1000 nM,> 1000 nM,> 2500 nM,> 2500 nM
CCn1c2c(c(=N)c3c1CCC3)CCCC2,> 1000 nM,> 1000 nM,> 1000 nM,> 1000 nM,> 1000 nM,> 2500 nM,> 2500 nM
Cc1ccc2c(C)nc(Nc3nc(C)cc(-c4ccccc4)n3)nc2c1,> 1000 nM,> 1000 nM,> 1000 nM,> 1000 nM,> 1000 nM,> 2500 nM,> 2500 nM
CCOc1ccc(Nc2ccnc3cc(Cl)ccc23)cc1,> 1000 nM,> 1000 nM,> 1000 nM,> 1000 nM,> 1000 nM,> 2500 nM,> 2500 nM
Cc1ccc(C)c(-c2csc(Nc3ccc(C)c(C)c3)n2)c1,> 1000 nM,> 1000 nM,> 1000 nM,> 1000 nM,> 1000 nM,> 2500 nM,> 2500 nM
